Assays:
[1] = system: back incisions of rats; test: In vivo rat back incision wound healing study; details: for microscopic changes of the 1 cm×1 cm back wound: Day 10, 10 days of drops twice a day (0.25% betaxolol, 0.5% Timoptol), FIG. 4A-4C
Description: An in vivo study was performed to examine the effectiveness of a non-selective β blocker and a β1-blocker using rats. The rats were divided into 3 groups: (a) control (n=2); (b) non-selective […] blocker (n=1); and (c) β1-blocker (n=1). On Day 0 of the experiment, 3 back incisions were made on each rat. The size of the back incisions are 1.5 cm×1.5 cm, 1 cm×1 cm and 0.5 cm×0.5 cm for the top, middle and bottom incisions as shown on FIG. 4A.
The rats in the control group received no treatment, the rat in the non-selective β blocker group received 0.5% Timoptol drop (MSD, USA) twice a day (30 μl for the top incision, 13 μl for the middle incision and 3.3 μl for the bottom incision) and the rat in the β1-blocker group received 0.25% Betoptic drop (Alcon Laboratories, USA) twice a day (30 μl for the top incision, 13 μl for the middle incision and 3.3 μl for the bottom incision).

[2] = system: severe, relapsing paronychia and pyogenic granuloma-like lesion on left thumb (induced by afatinib); test: Topical treatment of a patient with afatinib-induced paronychia and pyogenic granuloma-like lesion; format: in vivo, human; details: one patient; for improvement of paronychia and pyogenic granuloma-like lesion with previous topical treatment: previous treatment with all three agents, FIG. 1A
Text: They were subsequently treated with topical 0.25% betaxolol drops once daily (Alcon Laboratories, USA) for 4 weeks under occlusion.

[3] = system: deep fissure over palms or soles induced by EGFR inhibitors; details: 10 patients; topical 0.25% drops once a day; FIG. 2A, 2B
Description: 10 patients with deep fissure over palms or soles induced by EGFR inhibitors were treated with topical 0.25% betaxolol drops (Alcon Laboratories, USA) once a day.

Row | Molecule | microscopic changes of the 1 cm×1 cm back wound [1] | improvement of paronychia and pyogenic granuloma-like lesion with previous topical treatment [2] | also measured
1 | CC(C)(C)NC[C@H](O)COc1nsnc1N1CCOCC1.O=C(O)/C=C\C(=O)O [Timoptol] | incompletely healing, characterized with incomplete re-epithelization of the epidermis, less fibroblast activity and evidence of debri | – | –
2 | CCCCC(=O)O[C@]1(C(=O)CO)[C@@H](C)C[C@H]2[C@@H]3CCC4=CC(=O)C=C[C@]4(C)[C@@]3(F)[C@@H](O)C[C@@]21C [betamethasone valerate] | – | without any improvement | –
3 | CC(C)NCC(O)COc1ccc(CCOCC2CC2)cc1 (centres unmarked) [betaxolol] | almost completely healed with re-growth of fibroblasts, complete re-epithelization of epidermis, and no evidence of debri | – | resolution of paronychia and pyogenic granuloma-like lesion ([2]; topical 0.25% drops once daily for 4 weeks under occlusion, FIG. 1B): complete resolution of paronychia and pyogenic granuloma-like lesion; deep fissure wound healing [3]: healed within one week of treatment in all of the 10 patients; appearance of back incisions (erythema, size) ([1]; 0.25% drop twice a day, after 7 days of treatment, compared to 0.5% Timoptol drops and no treatment, FIG. 3C-3E): less erythematous and smaller in size
4 | O=[N+]([O-])[O-].[Ag+] [silver nitrate] | – | without any improvement | –
5 | gentamicin sulfate | – | without any improvement | –
